We go through one molecule from US20180325825A1 (GEMPHIRE THERAPEUTICS INC., priority 2015, published 2018).

Data set [1] is described as follows: Pharmacokinetics of prototype combinations of atorvastatin and gemcabene after a single oral dose to male dogs. The format is in vivo, male purebred beagle dogs. Conditions: 150 mg gemcabene IR, composite data from all animals.
For data set [2] the following is noted: background statement, cited from earlier work.

As for `CC(C)(CCCCOCCCCC(C)(C)C(=O)O)C(=O)O` [gemcabene, 6,6′-oxybis(2,2-dimethylhexanoic acid)], the “gemcabene pharmacokinetic profile in combination with atorvastatin prototype versus administered alone” value in data set [1] is on record as “essentially the same”. In data set [2], the “completeness of intestinal absorption in absence or presence of food” value is “essentially unchanged”; the “effect on the pharmacokinetics of simvastatin and atorvastatin in vivo” value is listed as “not to significantly affect”. For the same molecule, the “absorption in the intestines” value in data set [2] (oral) is on record as “almost complete absorption”.
